The source of these data is patent US20040081624A1, “Liquid aerosol formulations and aerosol generating devices and methods for generating aerosols” (Chrysalis Technologies Incorporated, priority 2002, published 2004).

The structures appear in SMILES notation.

What all share (type): physicochemical
Data set [1] can be described thus: Visual inspection of deposited aerosol particles (cascade impactor plates). As to conditions: carrier containing varying percentages of ethanol in water. The text has this: The average MMAD of the aerosol particles was 0.66 microns.
Albuterol aerosol particles produced using a carrier containing varying percentages of ethanol in water as described above were visually analyzed and determined to be dry aerosols.

Data set [2] in a line: Aerosol particle size distribution by cascade impactor (MOUDI) of aerosol from heated capillary passage. The conditions noted are these: carrier 20 volume % ethanol in water.
Data set [3] can be described thus: Observation of breakdown products / degradation during aerosol generation. The conditions noted are these: carrier including ethanol; summary of tests. The text has this:
Clogging of the capillary size passage of the aerosol generating device was not observed during these tests.

On to `CC(C)(C)NCC(O)c1ccc(O)c(CO)c1` (stereo not drawn) [albuterol], for which the “nature of aerosol by visual analysis” value in data set [1] is reported as “dry aerosols”. The “average MMAD of the albuterol aerosol particles” value in data set [2] is given as “about 3 microns”.

Regarding `CCCC1O[C@@H]2C[C@H]3[C@@H]4CCC5=CC(=O)C=C[C@]5(C)[C@H]4[C@@H](O)C[C@]3(C)[C@]2(C(=O)CO)O1` (stereo partly drawn) [budesonide], the degradation entry in data set [3] is recorded as “no observable degradation”.
